What was measured:
PC3 cells [1] = assay: MTT assay, cancer cell metabolic activity and proliferation; format: cell-based; details: Homo sapiens, PC-3, 24 h treatment, read-out: IC50, anti-proliferative effect (MTT)
Procedure: A MTT (3-[4,5-dimethylthiazol-2-yl]-2,5 diphenyl tetrazolium bromide) assay was used to assess cancer cell metabolic activity and proliferation.
The protocol was as follows: • A total of 4000 PC3 cells were seeded per well in 96-well plates. Following attachment, cells were treated with vehicle control DMSO, IPA3, Compound 1, Compound 3, and Compound 4 at various doses as indicated for 24 h. Growth inhibition was determined by MTT [3-(4,5-dimethylthiazol-2-yl)-2,5-diphenyltetrazolium bromide] (Sigma-Aldrich, St. Louis, MO, USA; catalog No. M2128) assay. The MTT solution was added to the media at a final concentration of 0.8 mg/mL and cells were incubated at 37° C. for 2 hours. After aspiration of media, formazan crystals were dissolved in 100 μl of DMSO. Optical densities were measured at 570 nm using a SynergyHT plate reader (BioTek. Winooski. […]. USA). To calculate IC50 values. GraphPad Prism Software was used (GraphPad Software. San Diego, CA. USA).

PC3 cells [2] = assay: Cell-monolayer scratch assay (cell motility); format: cell-based, human; details: 36 hours, half of the IC50 doses from the MTT assay
Procedure: The motility of cancer cells is an index of their ability to come out of the primary tumor, invade, and metastasize to distant tissues. MetasTx tested Compound 1. Compound 3, and Compound 4 for their inhibitory effect on human metastatic prostate cancer (PC3) cells by using a ‘cell-monolayer scratch assay”, a reliable technique to determine the rate of cancer cell motility.
A total of 0.5×10^5 PC3 cells were plated per well on 6 well plates to obtain 95% confluent monolayers of cells after overnight incubation. The following day, a linear scratch (wound) was made using a 200 μl pipette tip and the detached cells were washed away by sterile phosphate-buffered saline (PBS). Images of scratches were captured from three different locations under a phase-contrast microscope at 4× magnification. The monolayers were treated with the desired doses of vehicle or drugs (half of the IC50 doses determined from the MTT assay). The cells were allowed to migrate for 36 hours, and images of the wound were re-captured from the same locations. The percentage of healed areas was determined using the NIH ImageJ software by measuring the distance of imported images in Microsoft Office PowerPoint (Microsoft Office Inc.) at the same magnification.

PC3 cells [3] = assay: Annexin V-PE / 7-AAD apoptosis and necrosis assay (flow cytometry); format: cell-based, human; details: 24 hours treatment
Procedure: The anti-cancer efficacy of a drug was also evaluated based on the ability of the compound to induce apoptosis and/necrosis in cancer cells. […] Compound 1. Compound 3, and Compound 4 were tested based on their ability to induce apoptosis and necrosis in vitro. The protocol was as follows:
The apoptotic death of cells was determined using an Annexin V-PE apoptosis detection kit (Cat #559763; BD Biosciences. CA. USA) according to the manufacturer's protocol. In brief. PC3 cells were treated with DMSO (0.3%). IPA3. Compound 1. Compound 3 and Compound 4 for 24 hours. At the end of treatment, cells were trypsinized, washed with PBS and stained with annexin V-Phycoerythrin (PE) and 7-Amino-Actinomycin (7-AAD). The stained cells were analyzed using a flow cytometer within 1 h of staining.

PAK4 = PAK4 (Homo sapiens, UniProt O96013); details: group II PAK; cited from earlier work
PAK5 = PAK5 (Homo sapiens, UniProt Q9P286); details: group II PAK; cited from earlier work
PAK6 = PAK6 (Homo sapiens, UniProt Q9NQU5); details: group II PAK; cited from earlier work
[4] = cited from earlier work

Chain of PAK6 (Q9NQU5 whole entry, species assumed): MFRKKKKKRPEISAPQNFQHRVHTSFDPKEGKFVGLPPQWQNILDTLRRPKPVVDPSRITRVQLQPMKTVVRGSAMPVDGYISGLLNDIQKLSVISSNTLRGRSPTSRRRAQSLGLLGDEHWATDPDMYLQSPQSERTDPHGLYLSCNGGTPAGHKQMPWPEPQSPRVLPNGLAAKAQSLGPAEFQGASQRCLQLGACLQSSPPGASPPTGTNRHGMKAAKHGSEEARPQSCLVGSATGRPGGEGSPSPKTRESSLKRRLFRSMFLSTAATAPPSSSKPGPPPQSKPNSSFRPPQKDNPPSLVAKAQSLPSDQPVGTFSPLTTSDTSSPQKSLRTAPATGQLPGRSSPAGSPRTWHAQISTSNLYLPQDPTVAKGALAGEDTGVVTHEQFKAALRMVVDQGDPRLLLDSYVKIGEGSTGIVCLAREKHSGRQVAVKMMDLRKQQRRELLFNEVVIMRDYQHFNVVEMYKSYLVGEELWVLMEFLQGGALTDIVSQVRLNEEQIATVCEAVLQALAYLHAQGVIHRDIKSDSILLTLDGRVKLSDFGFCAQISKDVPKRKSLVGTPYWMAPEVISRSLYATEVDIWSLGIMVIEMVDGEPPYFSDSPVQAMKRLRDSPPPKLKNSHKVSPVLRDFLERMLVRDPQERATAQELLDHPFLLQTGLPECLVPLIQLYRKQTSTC
Chain of PAK5 (Q9P286 whole entry): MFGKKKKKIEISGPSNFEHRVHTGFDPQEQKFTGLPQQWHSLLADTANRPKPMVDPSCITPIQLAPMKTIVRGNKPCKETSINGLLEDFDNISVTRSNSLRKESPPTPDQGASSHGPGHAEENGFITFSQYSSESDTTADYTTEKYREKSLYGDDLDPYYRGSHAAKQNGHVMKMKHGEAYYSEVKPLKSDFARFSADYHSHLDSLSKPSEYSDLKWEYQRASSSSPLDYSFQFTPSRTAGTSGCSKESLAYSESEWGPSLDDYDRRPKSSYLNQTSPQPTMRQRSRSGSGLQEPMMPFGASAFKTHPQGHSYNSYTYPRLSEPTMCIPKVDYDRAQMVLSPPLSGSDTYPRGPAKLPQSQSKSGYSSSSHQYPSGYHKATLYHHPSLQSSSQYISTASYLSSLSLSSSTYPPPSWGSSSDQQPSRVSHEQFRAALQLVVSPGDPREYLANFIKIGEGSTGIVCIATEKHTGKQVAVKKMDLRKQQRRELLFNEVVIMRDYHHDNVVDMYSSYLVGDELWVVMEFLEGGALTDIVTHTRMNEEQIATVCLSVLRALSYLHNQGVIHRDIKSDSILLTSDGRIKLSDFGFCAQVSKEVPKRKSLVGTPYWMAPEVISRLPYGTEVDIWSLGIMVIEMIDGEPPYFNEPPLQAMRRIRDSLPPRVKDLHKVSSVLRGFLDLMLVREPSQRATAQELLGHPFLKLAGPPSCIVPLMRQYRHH
Chain of PAK4 (O96013 whole entry, species assumed): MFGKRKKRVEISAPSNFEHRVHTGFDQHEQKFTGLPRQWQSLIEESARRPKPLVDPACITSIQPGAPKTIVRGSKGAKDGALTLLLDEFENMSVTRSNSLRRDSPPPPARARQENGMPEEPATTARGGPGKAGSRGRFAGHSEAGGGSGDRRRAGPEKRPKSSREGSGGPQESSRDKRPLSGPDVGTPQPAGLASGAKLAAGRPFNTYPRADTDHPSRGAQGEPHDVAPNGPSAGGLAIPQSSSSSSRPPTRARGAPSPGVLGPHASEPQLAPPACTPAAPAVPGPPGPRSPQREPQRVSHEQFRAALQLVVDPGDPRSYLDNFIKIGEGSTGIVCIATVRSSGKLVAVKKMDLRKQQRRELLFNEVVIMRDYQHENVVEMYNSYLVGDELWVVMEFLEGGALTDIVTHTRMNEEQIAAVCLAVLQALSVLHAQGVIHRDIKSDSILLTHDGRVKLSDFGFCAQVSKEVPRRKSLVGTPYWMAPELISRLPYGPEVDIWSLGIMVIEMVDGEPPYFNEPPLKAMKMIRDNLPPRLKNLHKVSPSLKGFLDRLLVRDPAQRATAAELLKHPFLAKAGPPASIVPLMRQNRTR

Compound	IC50 (PC3 cells [1]) [µM]	inhibition of PC3 cell motility compared to vehicle (DMSO)-treated control (PC3 cells [2])	induction of apoptosis and necrosis compared to vehicle (DMSO)-treated control (PC3 cells [3])	total cell death compared to IPA-3 (PC3 cells [3])	inhibition of PAK4 (PAK4)	inhibition of PAK5 (PAK5)	inhibition of PAK6 (PAK6)	stability in plasma [4]
Oc1ccc2ccccc2c1CSc1c(O)ccc2ccccc12 [Compound 1]	50.2	did not show significant inhibition	robust induction of apoptosis and necrosis					
Oc1ccc2ccccc2c1CSCc1c(O)ccc2ccccc12 [Compound 3]	22.2	significant anti-cancer cell motility effects	robust induction of apoptosis and necrosis	superior efficacy in inducing total cell death				
Oc1ccc2ccccc2c1CCCc1c(O)ccc2ccccc12 [Compound 4]	15.5	significant anti-cancer cell motility effects	robust induction of apoptosis and necrosis	superior efficacy in inducing total cell death				
Oc1ccc2ccccc2c1SSc1c(O)ccc2ccccc12 [IPA-3, 2,2″-dihydroxy-1, 1′-dinaphthyldisulfide]	28	did not show significant inhibition	robust induction of apoptosis and necrosis		does not inhibit	does not inhibit	does not inhibit	not very stable

Source: US20250144046A1, “PHARMACEUTICAL COMPOSITIONS AND METHODS OF ADMINISTRATION” (METASTX, LLC, priority 2022, published 2025)
